Laboratory results reported in paper PMC9331544, “Molecular Physicochemical Properties of Selected Pesticides as Predictive Factors for Oxidative Stress and Apoptosis-Dependent Cell Death in Caco-2 and HepG2 Cells” (International Journal of Molecular Sciences, 2022).
Read-outs that look alike come from different tables or passages of the source.

Tests used:
Caco-2 cells [1] = tested on: Caco-2 cells
Description: (§1) Given the role of mitochondria in both oxidative stress and cell death (apoptosis), we evaluated the mitochondrial membrane potential (MMP) using the JC-1 probe (see methods for details). This probe accumulates in the mitochondria in the form of J-aggregates when in normal mitochondrial conditions (polarized) and presents red fluorescence. By contrast, in unhealthy cells, when depolarization occurs, JC-1 enters the mitochondria in lower concentrations forming monomers inducing a fluorescence shift to green fluorescence, thus the loss of MMP is observed through flow cytometry as a reduction in red (FL2) and an increase in green (FL1) fluorescence, or as a reduction in red/green (FL2/FL1) fluorescence ratio [45, 46].
(§2) Pesticide-induced oxidative stress and apoptosis/necrosis events were analysed by flow cytometry. For this, one colour and two-colour flow cytometry assays were performed, using a BD Accuri™ C6 cytometer (Franklin Lakes, NJ, USA) equipment for data acquisition. Each assay was performed at least in triplicate (n = 3) and 5000 gated events were collected from each sample. Data analysis was performed using BD Accuri™ C6 Software, version 1.0.264.21 supplied by Becton Dickinson (Franklin Lakes, NJ, USA).
(§3) Caco-2 and HepG2 cells (handled as described in Section 3.2.1) were seeded in 12-well microplates (at 5 × 10^4 cells/mL density; 750 µL/well), and allowed to adhere and stabilize for 48 h in the incubator. […] Negative control cells (non-exposed cells) were included in each assay. After a 24 h incubation with test solutions, cells were washed with phosphate buffer saline (PBS) solution and then detached from the microplates (as in Section 3.2.1) and placed in centrifuge tubes and centrifuged (5 min, 3000 rpm, bench micro-centrifuge). After eliminating the supernatant, cells were washed in PBS solution through another centrifuge cycle. Then cells were divided before being incubated with the specific markers to assess oxidative stress markers and cell apoptosis/necrosis.
(§4) Mitochondrial membrane potential was analysed using JC-1 probe following the procedures as described by the manufacturer. Caco-2 and HepG2 cells suspended in PBS were centrifuged (5 min, 3000 rpm, bench micro-centrifuge), the supernatant was removed and 200 μL of JC-1 solution (2 μM; diluted in FBS-free culture media) was added to each sample. The samples were incubated for 20 min at 37 °C (in a CO2 incubator) and then analysed by flow cytometry. Negative control, non-exposed, and positive control cells exposed to the protonophore FCCP (5 μM; carbonyl cyanide p-trifluoromethoxyphenylhydrazone) were performed in each set of experiments.

HepG2 cells [2] = conditions: for HepG2 FL2/FL1 ratio: mean ± SD
Description: as §1, §2, §3, §4

[3] = Alamar Blue cell viability/cytotoxicity assay; format: cell-based, human; conditions: human
Method: (§5) In this study, to assess the cytotoxic activity of GLY, IMD, and IMZ, human epithelial colorectal adenocarcinoma (Caco-2), cell lines service (CLS), (Eppelheim, Germany) and human hepatocellular carcinoma (HepG2) (ATCC, Rockville, Maryland, USA) cells were used. Cells were cultured in complete culture media (Dulbecco’s Modified Eagle Media (DMEM), supplemented with 1 mM L-glutamine, 10% (v/v) foetal bovine serum (FBS), and antibiotics (penicillin at 100 U/mL, and streptomycin at 100 μg/mL)) and maintained at 5% CO2/95% air; 37 °C, controlled humidity, in an incubator. Cells were grown in T25 culture flasks to near confluence. Then, these adherent cells were treated with trypsin (trypsin-EDTA), for detachment and subculture, which was stopped using complete culture medium (1:1, trypsin:culture media) as soon as cells were detached (about 6 and 8 minutes of trypsin treatment for HepG2 and Caco-2 cells, respectively). Detached cells were gently re-suspended with a Pasteur pipette and then a sample was counted using an automated cell counter (TC10™, BIORAD, Portugal). A suspension of cells in fresh culture media, at 5 × 10^4 cells/mL was prepared to seed into 96-well microplates (100 µL/well). After seeding, cells were placed in the incubator for 48 h (to adhere and stabilize) before being used, for other details see [66, 67].
(§6) Cell viability was assessed using the Alamar Blue® (AB) assay, after exposure to the pesticides. In summary, cells seeded into 96-well microplates were subjected to various concentrations of the pesticides (GLY: 0–1 mM; IMD: 0–1 mM; IMZ: 0–0.3 mM). To prepare the test solutions, the appropriate volume of the pesticide stock solution was diluted in FBS-free culture media just before its application to the cells. Stock solution of GLY was prepared in water (at 40 mM), and stock solutions of IMD and IMZ were prepared in DMSO (at 20 mM). After 24 h or 48 h of exposure, the test solutions were removed and the Alamar Blue solution (100 µL/well; 10% (v/v) in FBS-free medium) was immediately added to the cells, followed by a further 5 h incubation. The absorbance was then read at 570 and 620 nm using a microplate reader (Multiskan EX; MTX Lab Systems, Inc., Bradenton, FL, USA) and the percentage of the AB reduction was calculated according to the manufacturer’s instructions, as described before. Cell viability, at each condition, was calculated and expressed as percentage of control cells (non-exposed cells).
(§7) The concentrations needed to reduce cell viability by 50% (IC50) were calculated from three independent experiments (each one performed in quadruplicates), as described.

Caco-2 cells [4] = assay: Alamar Blue cell viability/cytotoxicity assay; format: cell-based, human; conditions: mean ± SD (n = 4), read-out: IC50 of pesticide-induced cytotoxicity
Method: as §5, §6, §7

HepG2 cells [5] = assay: Alamar Blue cell viability/cytotoxicity assay; format: cell-based, human; conditions: mean ± SD (n = 4), read-out: IC50 of pesticide-induced cytotoxicity
Method: as §5, §6, §7

Caco-2 cells [6] = assay: Intracellular ROS content, DCFDA, flow cytometry; format: cell-based, human; conditions: for change in ROS content vs control (in words): Caco-2, 24 h, tested concentrations
Method: (§8) To assess pesticides-induced oxidative stress, the intracellular content in reactive oxygen species (ROS), content in glutathione (GSH), and lipid peroxidation was quantified by flow cytometry, following the methods described by Domínguez-Perles, et al. and Queiroz, et al.. Briefly, to assess ROS content, cells re-suspended in PBS (from Section 3.3.1) were centrifuged (5 min, 3000 rpm, bench micro-centrifuge) and, after eliminating the supernatant, 200 μL of 10 µM DCFDA solution (prepared in FBS-free DMEM) was added to each sample. After a 45 min incubation at 37 °C (in the dark, in an incubator), cells were centrifuged to remove excess of probe and re-suspended in PBS. Finally, 5 μL of propidium iodide (PI; 50 μg/mL) was added to each sample 3 min before flow cytometry acquisition.

HepG2 cells [7] = assay: Intracellular ROS content, DCFDA, flow cytometry; format: cell-based, human; conditions: for change in ROS content vs control (in words): HepG2, 24 h, tested concentrations
Method: as §8

Caco-2 cells [8] = assay: Glutathione (GSH) content, Mercury Orange, flow cytometry; format: cell-based, human; conditions: Caco-2, 24 h, tested concentrations
Method: (§9) To assess GSH content, cells re-suspended in PBS (see Section 3.3.1) were incubated with 40 μM Mercury Orange (1-(4-chloromercuryphenyl-azo-2-naphtol) for 5 min (in the dark, room temperature), as described by du Plessis, et al..

HepG2 cells [9] = assay: as above; format: cell-based, human; conditions: HepG2, 24 h, tested concentrations
Method: as §9

Caco-2 cells [10] = assay: Lipid peroxidation, DHPE-FITC probe, flow cytometry; format: cell-based, human
Method: (§10) Lipid peroxidation was evaluated using the DHPE-FITC probe. Cells re-suspended in PBS (see Section 3.3.1) were incubated with 20 μM DHPE-FITC, for 20 min in the dark at room temperature (as describe).

HepG2 cells [11] = assay: as above; format: cell-based, human
Method: as §10

Caco-2 cells [12] = assay: Apoptosis/necrosis, Annexin-V-FITC/PI double staining, flow cytometry; format: cell-based, human; conditions: Caco-2, 24 h, tested concentrations; listed as GLY
Method: (§11) The samples where then incubated for 20 min at room temperature. After this period, 5 μL of propidium iodide (PI; at 50 μg/mL) solution were added to each sample 3 min before acquisition.

HepG2 cells [13] = assay: as above; format: cell-based, human; conditions: HepG2, 24 h, tested concentrations; listed as GLY
Method: as §11

HepG2 cells [14] = conditions: occupational concentrations; ref [29]; cited from earlier work
[15] = tested on: L-929 cells (fibroblast cell line); design: method as in PMID 33177931; conditions: 500 μM, ref [33]; cited from earlier work
HepG2 cells [16] = tested on: HepG2 cells; design: method as in PMID 34635006; conditions: HepG2, 500 μM, 24 h; ref [31]; cited from earlier work
[17] = ref [47],[48],[49],[50]; cited from earlier work
[18] = HepG2, FCCP positive control (5 μM)
[19] = IC50 of pesticide-induced cytotoxicity

N#CC(C#N)=NNc1ccc(OC(F)(F)F)cc1 [FCCP, carbonyl cyanide p-trifluoromethoxyphenylhydrazone, reference compound]
FL2/FL1 ratio reduction (% of control) (Caco-2 cells [1]; Caco-2, FCCP positive control (5 μM)): 93.04±0.93 % of control | Caco-2 FL2/FL1 ratio (Caco-2 cells [1]; Caco-2, FCCP positive control (5 μM), mean ± SD): 0.06±0.02 | FL2/FL1 ratio reduction (% of control) (HepG2 cells [2]; [18]): 79.87±4.12 % of control | HepG2 FL2/FL1 ratio (HepG2 cells [2]; [18]): 0.04±0.01

O=C(O)CNCP(=O)(O)O [Glyphosate, N-phosphonomethyl-glycine]
IC50 at 24 h ([3]; Caco-2, 24 h, read-out: IC50 (cytotoxicity)): > 1 mM | IC50 at 48 h ([3]; Caco-2, 48 h, read-out: IC50 (cytotoxicity)): > 1000 µM | IC50 at 24 h ([3]; HepG2, 24 h, read-out: IC50 (cytotoxicity)): > 1 mM | IC50 at 48 h ([3]; HepG2, 48 h, read-out: IC50 (cytotoxicity)): > 1000 µM | IC50 (Caco-2 cells [4]; Caco-2, 24 h exposure): > 1 mM | IC50 (Caco-2 cells [4]; Caco-2, 48 h exposure): > 1 mM | IC50 (HepG2 cells [5]; HepG2, 24 h exposure): > 1 mM | IC50 (HepG2 cells [5]; HepG2, 48 h exposure): > 1 mM | change in ROS content vs control (in words) (Caco-2 cells [6]; listed as GLY): control-like ROS levels | change in ROS content vs control (in words) (HepG2 cells [7]; listed as GLY): control-like ROS levels | change in GSH content vs control (in words) (Caco-2 cells [8]): did not show GSH levels different from control cells | change in GSH content vs control (in words) (HepG2 cells [9]): initial decrease in GSH content | lipid peroxidation (LP) vs control (in words) (Caco-2 cells [10]; Caco-2, 24 h, tested concentrations): did not produce significant LP | lipid peroxidation (LP) vs control (in words) (HepG2 cells [11]; HepG2, 24 h, tested concentrations): did not produce significant LP | change in mitochondrial membrane potential (in words) (Caco-2 cells [1]; Caco-2, 24 h, tested concentrations, listed as GLY): did not induce significant changes on MMP | apoptosis/necrosis induction (in words) (Caco-2 cells [12]): did not produce significant changes | apoptosis/necrosis induction (in words) (HepG2 cells [13]): did not induce significant changes on cell population distribution | HepG2 cell viability (in words) (HepG2 cells [14]): no reduction in HepG2 cell viability

O=[N+]([O-])NC1=NCCN1Cc1ccc(Cl)nc1 [Imidacloprid, imidacloprid]
IC50 at 24 h [3]: 0.624 ± 0.024 mM | IC50 at 48 h [3]: 620 ± 11 µM | IC50 at 24 h [3, 19]: > 1 mM | IC50 at 48 h [3, 19]: 832 ± 30 µM | increase in ROS content compared with control (Caco-2 cells [6]; Caco-2, 750 μM, 24 h): 1.42 fold | change in ROS content vs control (in words) (Caco-2 cells [6]; listed as IMD): significant (p < 0.05) increase in ROS content | increase in ROS content compared with control (HepG2 cells [7]; HepG2, 500 μM, 24 h): 1.59 fold | change in ROS content vs control (in words) (HepG2 cells [7]; listed as IMD): significant (p < 0.05) increase in ROS content | change in GSH content vs control (in words) (Caco-2 cells [8]): increased GSH levels | change in GSH content vs control (in words) (HepG2 cells [9]): increased GSH levels | lipid peroxidation (LP) vs control (in words) (Caco-2 cells [10]): induced significant LP | lipid peroxidation (LP) vs control (in words) (HepG2 cells [11]): not statistically significant | FL2/FL1 ratio reduction (% of control) (Caco-2 cells [1]; Caco-2, 500 μM, 24 h): 21.36±0.05 % of control | FL2/FL1 ratio reduction (% of control) (Caco-2 cells [1]; Caco-2, 750 μM, 24 h): 17.70±2.49 % of control | change in mitochondrial membrane potential (in words) (HepG2 cells [2]): Depolarized MMP | FL2/FL1 ratio reduction (% of control) (HepG2 cells [2]; HepG2, 100 μM, 24 h): 23.79±1.79 % of control | HepG2 FL2/FL1 ratio (HepG2 cells [2]; HepG2, 100 μM, 24 h): 0.17±0.01 | FL2/FL1 ratio reduction (% of control) (HepG2 cells [2]; HepG2, 250 μM, 24 h): 27.49±1.48 % of control | HepG2 FL2/FL1 ratio (HepG2 cells [2]; HepG2, 250 μM, 24 h): 0.16±0.02 | FL2/FL1 ratio reduction (% of control) (HepG2 cells [2]; HepG2, 500 μM, 24 h): 19.93±1.29 % of control | HepG2 FL2/FL1 ratio (HepG2 cells [2]; HepG2, 500 μM, 24 h): 0.18±0.01 | LDH release increase [15]: 50% | ROS content (in words) (HepG2 cells [16]): doubled ROS content | H-bond (donor count) [17]: 1 | H-donor (acceptor count) [17]: 4
